Reference: ChEMBL document CHEMBL5705899 (Biochem J, 2014)
Activity calls are given as the source filed them. The calls are words filed in the database; no cut-off is given here.

How the values were obtained:
[1] = molecular target: Dual specificity tyrosine-phosphorylation-regulated kinase 3 (Homo sapiens) (UniProt O43781); assay: Inhibition of human DYRK3 at 1 uM using RBER-IRStide as substrate in presence of 33P-ATP by ProQinase assay
[2] = molecular target: Tyrosine-protein kinase ZAP-70 (Homo sapiens) (UniProt P43403); assay: Inhibition of human ZAP70 at 1 uM using polyEY as substrate in presence of 33P-ATP by ProQinase assay
Sequence of Tyrosine-protein kinase ZAP-70 (Homo sapiens) (P43403 whole entry): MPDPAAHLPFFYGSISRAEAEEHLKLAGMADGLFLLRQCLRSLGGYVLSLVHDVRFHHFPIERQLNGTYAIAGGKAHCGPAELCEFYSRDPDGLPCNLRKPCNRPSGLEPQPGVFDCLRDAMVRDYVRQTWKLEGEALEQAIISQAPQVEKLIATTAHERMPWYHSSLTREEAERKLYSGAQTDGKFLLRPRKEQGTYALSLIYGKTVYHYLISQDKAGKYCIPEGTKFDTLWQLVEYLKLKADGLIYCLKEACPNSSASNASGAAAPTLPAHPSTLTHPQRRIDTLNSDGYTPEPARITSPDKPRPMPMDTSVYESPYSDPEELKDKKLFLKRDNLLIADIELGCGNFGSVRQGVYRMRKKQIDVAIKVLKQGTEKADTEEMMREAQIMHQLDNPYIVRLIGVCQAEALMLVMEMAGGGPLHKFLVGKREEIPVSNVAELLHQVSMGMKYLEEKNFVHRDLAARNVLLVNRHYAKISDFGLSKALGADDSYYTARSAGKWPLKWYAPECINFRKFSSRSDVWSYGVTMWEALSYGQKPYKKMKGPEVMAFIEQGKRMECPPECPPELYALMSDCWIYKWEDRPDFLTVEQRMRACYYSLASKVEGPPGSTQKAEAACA

[3] = molecular target: Dual specificity protein kinase CLK1 (Homo sapiens) (UniProt P49759); assay: Inhibition of human CLK1 at 1 uM using autophos as substrate in presence of 33P-ATP by ProQinase assay
[4] = molecular target: Aurora kinase A (Homo sapiens) (UniProt O14965); assay: Inhibition of recombinant human N-terminal Hi6-tagged Aurora A (2 to 403 residues) expressed in Escherichia coli assessed as remaining activity at 1 uM using LRRLSLGLRRLSLGLRRLSLGLRRLSLG as substrate incubated for 30 mins in presence of [gamma-33P]ATP by filter binding method relative to control
[5] = molecular target: G protein-coupled receptor kinase 3 (Homo sapiens) (UniProt P35626); assay: Inhibition of human GRK3 at 1 uM using casein as substrate in presence of 33P-ATP by ProQinase assay
Sequence of G protein-coupled receptor kinase 3 (Homo sapiens) (P35626 whole entry): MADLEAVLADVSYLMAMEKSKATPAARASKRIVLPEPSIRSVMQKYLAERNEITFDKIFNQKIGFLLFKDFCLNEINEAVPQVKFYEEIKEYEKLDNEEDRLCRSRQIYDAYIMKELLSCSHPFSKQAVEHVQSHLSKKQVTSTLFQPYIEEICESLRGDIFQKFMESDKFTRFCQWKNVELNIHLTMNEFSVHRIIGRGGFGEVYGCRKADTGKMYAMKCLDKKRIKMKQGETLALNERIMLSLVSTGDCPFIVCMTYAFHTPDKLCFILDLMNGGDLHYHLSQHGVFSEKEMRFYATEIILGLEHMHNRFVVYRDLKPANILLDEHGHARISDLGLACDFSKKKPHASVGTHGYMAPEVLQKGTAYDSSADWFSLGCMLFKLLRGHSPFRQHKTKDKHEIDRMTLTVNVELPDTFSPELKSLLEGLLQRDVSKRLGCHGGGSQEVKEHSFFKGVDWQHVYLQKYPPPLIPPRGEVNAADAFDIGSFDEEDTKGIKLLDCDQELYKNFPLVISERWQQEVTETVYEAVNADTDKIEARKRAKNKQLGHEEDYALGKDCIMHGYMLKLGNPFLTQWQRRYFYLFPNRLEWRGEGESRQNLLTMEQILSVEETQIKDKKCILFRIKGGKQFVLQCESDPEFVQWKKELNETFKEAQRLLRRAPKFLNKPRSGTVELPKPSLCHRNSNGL

[6] = molecular target: Serine/threonine-protein kinase TBK1 (Homo sapiens) (UniProt Q9UHD2); assay: Inhibition of human TBK1 at 1 uM using casein as substrate in presence of 33P-ATP by ProQinase assay
[7] = molecular target: PI3K p110 beta/p85 alpha (Homo sapiens, UniProt P42338); assay: Inhibition of human PIK3CB/PIK3R1 using PIP2/PS as substrate by ADP-Glo assay; format: protein-complex assay
[8] = molecular target: Mitogen-activated protein kinase 13 (Homo sapiens) (UniProt O15264); assay: Inhibition of human p38delta at 1 uM using RBER-CHKtide as substrate in presence of 33P-ATP by ProQinase assay
[9] = molecular target: PI3-kinase p110-alpha/p85-alpha (Homo sapiens) (UniProt P27986+P42336); assay: Inhibition of recombinant human N-terminal His6-tagged PI3Kalpha (2 to 1068 residues)/p85A (1 to 724 residues) expressed in baculovirus expression system at 1 uM using diC8 PIP2 as substrate incubated for 80 mins by ADP-Glo assay
[10] = molecular target: Casein kinase I isoform delta (Homo sapiens) (UniProt P48730); assay: Inhibition of recombinant human N-terminal GST-tagged CK1delta (1 to 415 residues) expressed in Escherichia coli assessed as remaining activity at 1 uM using RRKDLHDDEEDEAMSITA as substrate incubated for 30 mins in presence of [gamma-33P]ATP by filter binding method relative to control
[11] = molecular target: Ephrin type-B receptor 3 (Homo sapiens) (UniProt P54753); assay: Inhibition of human EPHB3 at 1 uM using polyEY as substrate in presence of 33P-ATP by ProQinase assay
[12] = molecular target: Mitogen-activated protein kinase 15 (Homo sapiens) (UniProt Q8TD08); assay: Inhibition of recombinant human N-terminal His6-tagged ERK8 (2 to 544 residues) expressed in baculovirus infected Sf21 cells assessed as remaining activity at 1 uM using MBP as substrate incubated for 30 mins in presence of [gamma-33P]ATP by filter binding method relative to control
[13] = molecular target: Serine/threonine-protein kinase MRCK beta (Homo sapiens) (UniProt Q9Y5S2); assay: Inhibition of human CDC42BPB at 1 uM using RB-S6P as substrate in presence of 33P-ATP by ProQinase assay
Sequence of Serine/threonine-protein kinase MRCK beta (Homo sapiens) (Q9Y5S2 whole entry, the tested form may be a part): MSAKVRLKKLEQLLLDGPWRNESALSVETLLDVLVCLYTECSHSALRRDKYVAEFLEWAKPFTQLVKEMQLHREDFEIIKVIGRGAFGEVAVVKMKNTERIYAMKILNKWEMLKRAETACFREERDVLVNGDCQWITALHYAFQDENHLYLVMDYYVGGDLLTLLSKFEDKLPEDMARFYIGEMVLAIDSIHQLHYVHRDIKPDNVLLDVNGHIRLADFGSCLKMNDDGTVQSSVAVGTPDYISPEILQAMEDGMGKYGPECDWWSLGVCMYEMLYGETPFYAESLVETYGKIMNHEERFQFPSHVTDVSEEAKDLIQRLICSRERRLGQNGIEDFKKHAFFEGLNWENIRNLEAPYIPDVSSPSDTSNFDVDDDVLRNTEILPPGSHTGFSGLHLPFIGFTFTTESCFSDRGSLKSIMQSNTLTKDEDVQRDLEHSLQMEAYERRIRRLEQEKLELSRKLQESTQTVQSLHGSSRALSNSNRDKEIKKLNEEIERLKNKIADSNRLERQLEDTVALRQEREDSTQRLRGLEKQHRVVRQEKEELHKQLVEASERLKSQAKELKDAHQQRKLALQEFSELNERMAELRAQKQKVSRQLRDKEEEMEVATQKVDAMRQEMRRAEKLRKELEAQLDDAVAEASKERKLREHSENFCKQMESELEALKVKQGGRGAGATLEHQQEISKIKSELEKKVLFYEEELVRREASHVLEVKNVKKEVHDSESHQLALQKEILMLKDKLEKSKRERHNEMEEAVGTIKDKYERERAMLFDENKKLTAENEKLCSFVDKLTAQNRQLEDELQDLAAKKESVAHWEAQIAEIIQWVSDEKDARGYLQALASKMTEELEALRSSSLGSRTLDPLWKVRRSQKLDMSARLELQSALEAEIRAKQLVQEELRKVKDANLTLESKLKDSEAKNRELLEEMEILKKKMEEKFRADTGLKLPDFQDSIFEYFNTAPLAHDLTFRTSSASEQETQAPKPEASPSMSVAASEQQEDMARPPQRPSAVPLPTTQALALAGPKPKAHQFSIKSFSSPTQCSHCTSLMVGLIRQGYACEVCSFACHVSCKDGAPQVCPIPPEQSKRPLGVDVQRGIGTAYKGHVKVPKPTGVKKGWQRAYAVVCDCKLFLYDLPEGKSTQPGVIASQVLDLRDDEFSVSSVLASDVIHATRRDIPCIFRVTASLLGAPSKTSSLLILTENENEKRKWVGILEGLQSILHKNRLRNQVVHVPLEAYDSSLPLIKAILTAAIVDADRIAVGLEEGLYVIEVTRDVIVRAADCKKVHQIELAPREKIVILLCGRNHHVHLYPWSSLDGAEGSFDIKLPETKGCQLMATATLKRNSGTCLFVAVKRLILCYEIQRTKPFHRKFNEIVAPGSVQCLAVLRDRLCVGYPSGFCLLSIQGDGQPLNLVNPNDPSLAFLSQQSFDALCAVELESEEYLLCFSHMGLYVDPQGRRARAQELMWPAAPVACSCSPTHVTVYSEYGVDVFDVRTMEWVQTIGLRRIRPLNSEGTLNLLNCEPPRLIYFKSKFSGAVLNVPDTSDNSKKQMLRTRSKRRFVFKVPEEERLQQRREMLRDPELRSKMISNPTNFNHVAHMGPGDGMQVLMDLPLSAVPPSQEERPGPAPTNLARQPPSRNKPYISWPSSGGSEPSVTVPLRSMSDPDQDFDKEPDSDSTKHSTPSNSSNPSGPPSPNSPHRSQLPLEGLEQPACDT

[14] = molecular target: Phosphatidylinositol 3-kinase C2 domain-containing subunit gamma (Homo sapiens) (UniProt O75747); assay: Inhibition of PI3KC2gamma (unknown origin) at 1 uM
[15] = molecular target: Death-associated protein kinase 1 (Homo sapiens) (UniProt P53355); assay: Inhibition of recombinant human N-terminal GST-tagged DAPK1 (1 to 363 residues) expressed in Escherichia coli assessed as remaining activity at 1 uM using KKLNRTLSFAEPG as substrate incubated for 30 mins in presence of [gamma-33P]ATP by filter binding method relative to control
Sequence of Death-associated protein kinase 1 (Homo sapiens) (P53355 whole entry, looked up, the tested form may be a part): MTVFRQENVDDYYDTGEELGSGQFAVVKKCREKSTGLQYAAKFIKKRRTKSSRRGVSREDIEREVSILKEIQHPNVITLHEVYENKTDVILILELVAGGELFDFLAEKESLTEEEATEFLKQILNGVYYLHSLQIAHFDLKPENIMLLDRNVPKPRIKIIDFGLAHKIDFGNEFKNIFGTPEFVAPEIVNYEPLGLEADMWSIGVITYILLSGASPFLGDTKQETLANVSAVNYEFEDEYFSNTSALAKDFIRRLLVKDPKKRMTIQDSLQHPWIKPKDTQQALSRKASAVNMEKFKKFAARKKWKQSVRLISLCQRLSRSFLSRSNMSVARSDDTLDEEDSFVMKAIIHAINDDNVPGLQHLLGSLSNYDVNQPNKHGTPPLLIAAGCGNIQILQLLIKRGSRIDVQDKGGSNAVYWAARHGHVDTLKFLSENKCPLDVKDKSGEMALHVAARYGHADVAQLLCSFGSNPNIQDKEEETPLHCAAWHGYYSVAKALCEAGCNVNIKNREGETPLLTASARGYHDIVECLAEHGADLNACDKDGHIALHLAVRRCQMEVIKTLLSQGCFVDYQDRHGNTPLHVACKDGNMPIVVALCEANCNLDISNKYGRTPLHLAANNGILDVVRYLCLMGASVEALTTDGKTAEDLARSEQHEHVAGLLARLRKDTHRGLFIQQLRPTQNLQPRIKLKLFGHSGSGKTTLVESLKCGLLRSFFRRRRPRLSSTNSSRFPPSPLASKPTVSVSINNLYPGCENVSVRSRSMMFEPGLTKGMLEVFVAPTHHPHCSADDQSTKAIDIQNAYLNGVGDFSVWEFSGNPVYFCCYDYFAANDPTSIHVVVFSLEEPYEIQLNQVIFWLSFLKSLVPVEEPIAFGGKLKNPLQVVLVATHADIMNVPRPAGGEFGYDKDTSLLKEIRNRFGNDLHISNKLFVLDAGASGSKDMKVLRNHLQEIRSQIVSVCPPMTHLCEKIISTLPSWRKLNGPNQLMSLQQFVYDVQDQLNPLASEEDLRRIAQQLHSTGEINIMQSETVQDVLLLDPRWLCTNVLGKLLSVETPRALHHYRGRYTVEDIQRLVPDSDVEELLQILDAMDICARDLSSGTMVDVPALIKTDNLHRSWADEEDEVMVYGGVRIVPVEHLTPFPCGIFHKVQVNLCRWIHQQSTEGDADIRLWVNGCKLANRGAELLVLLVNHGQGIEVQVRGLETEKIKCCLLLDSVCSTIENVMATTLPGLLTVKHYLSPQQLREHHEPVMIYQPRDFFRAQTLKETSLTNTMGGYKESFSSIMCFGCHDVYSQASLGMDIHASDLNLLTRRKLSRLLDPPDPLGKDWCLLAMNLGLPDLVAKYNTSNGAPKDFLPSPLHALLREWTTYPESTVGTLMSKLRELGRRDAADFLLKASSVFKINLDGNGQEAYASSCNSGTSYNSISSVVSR

[16] = molecular target: MAP kinase-activated protein kinase 2 (Homo sapiens) (UniProt P49137); assay: Inhibition of human MAPKAPK2 at 1 uM using RBER-CHKtide as substrate in presence of 33P-ATP by ProQinase assay
[17] = molecular target: Ephrin type-A receptor 5 (Homo sapiens) (UniProt P54756); assay: Inhibition of human EPHA5 at 1 uM using polyEY as substrate in presence of 33P-ATP by ProQinase assay
[18] = molecular target: Activin receptor type-2B (Homo sapiens) (UniProt Q13705); assay: Inhibition of human ACVR2B at 1 uM using RB-CTF as substrate in presence of 33P-ATP by ProQinase assay
[19] = molecular target: Serine/threonine-protein kinase PINK1, mitochondrial (Homo sapiens) (UniProt Q9BXM7); assay: Inhibition of recombinant human N-terminal MBP-tagged PINK1 (1 to 570 residues) expressed in Escherichia coli assessed as remaining activity at 1 uM using KKSRGDYMTMQIG as substrate incubated for 30 mins in presence of [gamma-33P]ATP by filter binding method relative to control
[20] = molecular target: Eukaryotic translation initiation factor 2-alpha kinase 3 (Homo sapiens) (UniProt Q9NZJ5); assay: Inhibition of recombinant human N-terminal GST-tagged EIF2AK3 (536 to 1116 residues) expressed in Escherichia coli assessed as remaining activity at 1 uM using MBP as substrate incubated for 30 mins in presence of [gamma-33P]ATP by filter binding method relative to control
[21] = molecular target: Ephrin type-B receptor 2 (Homo sapiens) (UniProt P29323); assay: Inhibition of human EPHB2 at 1 uM using poly(Ala,Glu,Lys,Tyr) as substrate in presence of 33P-ATP by ProQinase assay
[22] = molecular target: Dual specificity mitogen-activated protein kinase kinase 6 (Homo sapiens) (UniProt P52564); assay: Inhibition of recombinant human N-terminal MBP-tagged MKK6 (2 to 334 residues) expressed in Escherichia coli assessed as remaining activity at 1 uM using SAPK2a as substrate incubated for 30 mins in presence of [gamma-33P]ATP by filter binding method relative to control
[23] = molecular target: Fibroblast growth factor receptor 1 (Homo sapiens) (UniProt P11362); assay: Inhibition of recombinant human N-terminal His6-tagged FGFR1 (400 to 820 residues) expressed in baculovirus infected Sf21 cells assessed as remaining activity at 1 uM using Poly(Glu,Tyr) as substrate incubated for 30 mins in presence of [gamma-33P]ATP by filter binding method relative to control
[24] = molecular target: Phosphatidylinositol 4,5-bisphosphate 3-kinase catalytic subunit gamma isoform (Homo sapiens, UniProt P48736); assay: Inhibition of human PIK3CG using PIP2/PS as substrate by ADP-Glo assay
[25] = molecular target: Serine/threonine-protein kinase 25 (Homo sapiens) (UniProt O00506); assay: Inhibition of human STK25 at 1 uM using casein as substrate in presence of 33P-ATP by ProQinase assay

Sequence of Dual specificity tyrosine-phosphorylation-regulated kinase 3 (Homo sapiens) (O43781 whole entry): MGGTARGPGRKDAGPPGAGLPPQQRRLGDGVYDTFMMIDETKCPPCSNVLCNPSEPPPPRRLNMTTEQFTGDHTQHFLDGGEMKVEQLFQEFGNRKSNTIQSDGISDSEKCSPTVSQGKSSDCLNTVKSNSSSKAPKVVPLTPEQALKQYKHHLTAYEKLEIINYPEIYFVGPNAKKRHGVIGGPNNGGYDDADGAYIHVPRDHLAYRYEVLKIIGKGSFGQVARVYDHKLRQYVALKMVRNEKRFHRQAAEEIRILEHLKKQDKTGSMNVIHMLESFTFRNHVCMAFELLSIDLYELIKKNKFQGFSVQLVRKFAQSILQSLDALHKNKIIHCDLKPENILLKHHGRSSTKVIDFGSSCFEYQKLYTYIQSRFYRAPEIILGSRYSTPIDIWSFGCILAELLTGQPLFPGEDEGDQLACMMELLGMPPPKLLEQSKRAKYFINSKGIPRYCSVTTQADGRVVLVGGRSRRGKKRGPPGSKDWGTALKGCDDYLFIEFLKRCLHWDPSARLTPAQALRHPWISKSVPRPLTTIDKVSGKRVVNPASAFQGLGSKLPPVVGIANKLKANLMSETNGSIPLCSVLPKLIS

Compound: CC(C)(O)CNc1ncc(-c2ccnc(Nc3ccnc(Cl)c3)n2)c(CC2CC2)n1
- inhibition [1]: inactive
- inhibition [2]: inactive
- inhibition [3]: inactive
- Activity [4]: 110%
- inhibition [5]: inactive
- inhibition [6]: inactive
- IC50 [7]: > 10 µM
- inhibition [8]: inactive
- inhibition [9]: inactive
- Activity [10]: 105%
- inhibition [11]: inactive
- Activity [12]: 36%
- inhibition [13]: inactive
- inhibition [14]: inactive
- Activity [15]: 96%
- inhibition [16]: inactive
- inhibition [17]: inactive
- inhibition [18]: inactive
- Activity [19]: 109%
- Activity [20]: 125%
- inhibition [21]: inactive
- Activity [22]: 124%
- Activity [23]: 95%
- IC50 [24]: > 10 µM
- inhibition [25]: inactive
